Reference: patent US9588106B2, “Methods and compositions for measuring cell permeability” (The University of Chicago, priority 2012, dated 2017)

Test system: HPAEC monolayer
Assay: XPerT permeability visualization on biotinylated gelatin coated coverslips (FITC-avidin, VE-cadherin staining)
Format: cell-based, human
Conditions: thrombin 0.2 or 0.3 U/ml 15 min; forskolin 2 μM 30 min; 10× objective; FIG. 4A
Description: Human pulmonary artery endothelial cells (HPAEC) were obtained from Lonza (Allendale, N.J.) and cultured in cell growth medium (EGM-2, Lonza) containing 10% fetal bovine serum (FBS). Cell cultures were maintained at 37° C. in a humidified 5% CO2 incubator and used for experiments at passages 5-8. In experiments with agonist stimulation, 10% FBS growth medium was replaced with 2% FBS growth medium for 2 hours prior to experiment. Measurements of transendothelial electrical resistance across a confluent endothelial cell monolayer were performed using the electrical cell-substrate impedance sensing system ECIS-1600 (Applied Biophysics, Troy, N.Y.). Transient transfections with cMyc-tagged RhoA-V14 or Rho kinase-CAT (6-553) were performed using PolyJet transfection reagent (SignaGen, Rockville, Md.) according to the manufacturer's protocol. In brief, HPAEC were seeded on 35 mm diameter cell culture dishes with biotinylated gelatin-treated coverslips at a density of 5×10^5 cells per dish. After 24 hours cells were transfected with 1 μg of plasmid DNA per dish (ratio: 1 μg of DNA per 3 μl of PolyJet). Permeability visualization experiments were performed 24 hours after transfection.
Permeability visualization experiments were performed on 18×18 mm square Rinzle plastic coverslips. The coverslips, placed in 35 mm culture dishes, were coated with biotinylated gelatin as described above. […]

thrombin
FITC fluorescence at cell-cell junction areas, low magnification images: dramatic increase in FITC fluorescence in the intercellular gaps
